Data reported in patent US20060148714A1, “Therapeutic peptide-based constructs” (priority 1999, published 2006).
≈ marks a conversion by molar mass, not a printed value. Marks after values point to notes of the source that are not given here. Where a SMILES comes first, the peptide text is derived from it. Where no end group is shown, it is not given here. [ ]: non-standard residue; d: D form. The star is where a group is joined. Benzoyl(4-Ph) = O=C(c1ccc(-c2ccccc2)cc1)*; Benzoyl(2-Ph) = O=C(c1ccccc1-c1ccccc1)*; d1Nal = N[C@H](Cc1cccc2ccccc12)C(=O)O; Aib = CC(C)(N)C(=O)O

Tests used:
[1] = test system: Factor Xa neutralization by ATIII/heparin complexes; test: Chromostrate heparin anti-Factor Xa assay (heparin neutralization); assay type: biochemical; conditions: absorbance at 405 nm
Protocol: A Chromostrate™ assay was used to determine the effect of peptide-based constructs, including derivatized constructs, and the effect protamine sulfate (as a positive control) on Factor Xa neutralization by ATIII/heparin complexes. The assay was conducted using a Chromostrate™ heparin anti-Factor Xa assay kit (Organon Teknika Corp., Durham, N.C.). Heparin concentration was varied so that a heparin standard curve was generated. The assay measured the potentiating effect of heparin on anti-Xa activity in vitro. Solution containing heparin is incubated in the presence of ATIII with an excess of Factor Xa, forming an ATIII-Heparin-Xa complex. The remaining Xa catalyzes the release of p-nitroaniline (pNA) from the chromogenic substrate. The release of p-nitroaniline is measured at 405 nm. The absorbance obtained in inversely porportional to the concentration of heparin in the sample.
Reagents for the assay are prepared as follows. Heparin, peptide-based constructs and protamine sulfate stocks are made in saline. Stock solutions are approximately 1 mg/mL=1 μg/μL. Factor Xa reagent and substrate reagent are reconstituted with 2.0 mL purified water. Antithrombin III (ATIII) reagent is reconstituted with 1.0 mL purified water. The assay is performed in 96 well microtiter plates. Assay components are added to the microtiter wells as follows: 12.5 μl of heparin (from 0 to 10 U/mL), 25 μl of construct or protamine sulfate, 12.5 μL of ATIII (0.5 PEU/mL), 25 μL of bovine Factor Xa (14 nKat/mL), 25 μL substrate (3 μmoles/mL). The reaction is allowed to proceed for 20 minutes and then 25 μL of 0.1 M acetic acid is added. The color reaction is quantitated on a microplate reader at 405 nm. Constructs that neutralize heparin show an increase in the absorbance at 405 nm. Protamine is used as a positive control and its activity is designated as 100%. The percent (%) heparin neutralization for each peptide construct is calculated relative to the neutralization by protamine (100%), and shown in Table IV.

[2] = test system: E. coli (J5 and 0111 B4), Staphylococcus aureus and Candida albicans; test: Broth and/or radial diffusion antimicrobial assays; assay type: cell-based
Source text: Assays useful for testing a variety of biological activities of BPI protein products, including BPI-derived peptides, are described in co-owned U.S. Pat. Nos. 5,733,872; 5,763,567; 5,652,332; and 5,856,438 and corresponding PCT Publication Nos. WO 94/20532 (PCT/US94/02465) and WO 95/19372 (PCT/US94/10427) and U.S. Pat. No. 5,858,974 and corresponding PCT Publications Nos. WO 96/08509 (PCT/US95/09262) and WO 97/04008 (PCT/US96/03845), incorporated herein by reference. These activities include antimicrobial (including antibacterial and antifungal), LPS binding, LPS neutralization and additional assays of heparin binding as well as heparin neutralization.

LPS = test: RAW cell assay of LPS neutralization; assay type: cell-based
[3] = test system: human umbilical vein endothelial cells (HUVEC); assay type: cell-based; conditions: 72 h
Protocol: Briefly, human umbilical vein endothelial cells (HUVEC) were cultured in EGM-2 medium (Clonetics Corp., San Diego, Calif.), harvested and plated onto a 96-well culture plate. After 24 hours of quiescence, the cells were co-cultured with various peptide-based constricts in the presence of growth factors for 72 hours to test their activity. Cell proliferation was quantitated by tritiated thymidine incorporation into DNA and was expressed in counts per minute (cpm).
Details of the experimental procedures were as follows: HUVEC cells were cultured in EGM-2 media from Clonetics Corp., a subsidiary of BioWhittaker, Inc., San Diego, Calif. [EGM-2 is Endothelial Cell Basal Medium-2 (EMB-2) supplemented with growth factors (hFGF-B, VEGF, IGF-1, hEGF) ascorbic acid, heparin, GA-1000 and 2% FBS), in T75 flasks until confluent (˜4-7 days). Cells were harvested by trypsinizing the cells using 0.025% trypsin/EDTA for 5 minutes. To stop the reaction, 2-5% FBS was added. The cells were centrifuged and washed 3 times using Hank's Balanced Salt Solution (HBSS) or Dulbecco's Phosphate Buffered Saline D-PBS. The pellet was then resuspended in EBM-2 supplemented with 0.1% FBS and GA-1000 was used. The cells were counted and a cell suspension was prepared at 2×10^5/mL in EBM-2 with 0.1% FBS; cells were dispensed into a 96-well flat bottomed culture plate at 0.1 mL/well (total: ˜20,000 cells/well in 0.1% FBS-EBM-2). Incubation continued at 37° C. in 5% CO2 for 20-24 hours. The next day peptide-based constructs were prepared for testing in a 96 well plate. The supernatant was aspirated from the cell-well, replaced with EBM-2 or the testing reagent at 20 μL/well. Then, 180 μL/well of 1.12% FBS-GFS were added to make a final concentration of 1% FBS-GFS in EBM-2. This aspiration and addition was done well-by-well. ^3H-thymidine (100 μCi/mL) was added at 10 μL/well (1 μCi/well, final). Incubation continued at 37° C., 5% CO2 for 72 hours. To harvest the plate, the supernatant was aspirated off from the cell-well and then 75 μL-100 μL/well of 0.025% trypsin-EDTA was added. After incubation for 8-10 minutes at room temperature in the hood, the cells were checked and 100 μL/well of 2-5% FBS-PBS was added to stop the reaction. The plate was then harvested, dried and counted using an Inotech cell harvester (Inotech Biosystems, INB-384, Sample Processing and Filter Counting System, Lansing, Mich.).

1-naphthylacetyl-k-l-f-r-(naph-a)-q-a-k ({1‑naphthylacetyl}-[dK][dL][dF][dR][dNal][dQ][dA][dK]; not fully specified; printed as 1-naphthylacetyl-k-l-f-r-(naph-a)-q-a-k) [XMP.671]
Assay A: percent heparin neutralization relative to protamine (100%) [1]: 32%
Assay B: percent heparin neutralization relative to protamine (100%) [1]: 15%

4-biphenylcarbonyl-k-l-f-k-(biphenyl-a)-q-a-k [XMP.769]
Assay A: percent heparin neutralization relative to protamine (100%) [1]: 64%
Assay B: percent heparin neutralization relative to protamine (100%) [1]: 46%

4-biphenylcarbonyl-k-l-f-k-(naph-a)-q-a-k ({Benzoyl(4-Ph)}-[dK][dL][dF][dK][dNal][dQ][dA][dK]; not fully specified; printed as 4-biphenylcarbonyl-k-l-f-k-(naph-a)-q-a-k) [XMP.767]
Assay A: percent heparin neutralization relative to protamine (100%) [1]: 63%*
Assay B: percent heparin neutralization relative to protamine (100%) [1]: 58%
antimicrobial activity [2]: highest activities

4-biphenylcarbonyl-k-l-f-r-(biphenyl-a)-q-a-k [XMP.768]
Assay A: percent heparin neutralization relative to protamine (100%) [1]: 34%
Assay B: percent heparin neutralization relative to protamine (100%) [1]: 10%

4-biphenylcarbonyl-k-l-f-r-(naph-a)-q-a-k ({Benzoyl(4-Ph)}-[dK][dL][dF][dR][dNal][dQ][dA][dK]; not fully specified; printed as 4-biphenylcarbonyl-k-l-f-r-(naph-a)-q-a-k) [XMP.664]
Assay A: percent heparin neutralization relative to protamine (100%) [1]: 50%
Assay B: percent heparin neutralization relative to protamine (100%) [1]: 16%
antimicrobial activity [2]: highest activities

CC[C@@H](C)[C@@H](NC(=O)[C@@H](CO)NC(=O)CNC(=O)[C@@H](CCCCN)NC(=O)[C@@H](Cc1cccc2ccccc12)NC(=O)[C@@H](CCCCN)NC(=O)[C@@H](C)NC(=O)[C@@H](CCC(N)=O)NC(=O)[C@@H](Cc1cccc2ccccc12)NC(=O)[C@@H](CCCNC(=N)N)NC(=O)[C@@H](Cc1ccccc1)NC(=O)[C@@H](CC(C)C)NC(=O)[C@H](N)CCCCN)C(N)=O [XMP.625, k-l-f-r-(naph-a)-q-a-k-(naph-a)-k-g-s-i] (H-[dK][dL][dF][dR][d1Nal][dQ][dA][dK][d1Nal][dK]G[dS][dI]-NH2)
Assay A: percent heparin neutralization relative to protamine (100%) [1]: 79%
Assay B: percent heparin neutralization relative to protamine (100%) [1]: 125%
LPS neutralization activity (LPS): showed activity

CC[C@@H](C)[C@@H](NC(=O)[C@@H](CCCCN)NC(=O)[C@H](NC(=O)CNC(=O)[C@@H](CCCCN)NC(=O)[C@@H](Cc1cccc2ccccc12)NC(=O)[C@@H](CCCCN)NC(=O)[C@@H](C)NC(=O)[C@@H](CCC(N)=O)NC(=O)[C@@H](Cc1cccc2ccccc12)NC(=O)[C@@H](CCCNC(=N)N)NC(=O)[C@@H](Cc1ccccc1)NC(=O)[C@@H](CC(C)C)NC(=O)[C@H](N)CCCCN)[C@H](C)CC)C(N)=O [XMP.656, k-l-f-r-(naph-a)-q-a-k-(naph-a)-k-g-i-k-i] (H-[dK][dL][dF][dR][d1Nal][dQ][dA][dK][d1Nal][dK]G[dI][dK][dI]-NH2; N-terminus assumed)
IC50 [3]: 2.6 ± 0.8 µg/mL (≈ 1.43 µM)
Assay A: percent heparin neutralization relative to protamine (100%) [1]: 74%
Assay B: percent heparin neutralization relative to protamine (100%) [1]: 65%
antimicrobial activity [2]: highest antimicrobial activities

CC(C)C[C@@H](NC(=O)[C@@H](CCCCN)NC(=O)c1ccccc1-c1ccccc1)C(=O)N[C@H](Cc1ccccc1)C(=O)N[C@H](CCCNC(=N)N)C(=O)N[C@H](Cc1cccc2ccccc12)C(=O)N[C@H](CCC(N)=O)C(=O)N[C@H](C)C(=O)N[C@H](CCCCN)C(N)=O [XMP.661, 2-biphenylcarbonyl-k-l-f-r-(naph-a)-q-a-k] ({Benzoyl(2-Ph)}-[dK][dL][dF][dR][d1Nal][dQ][dA][dK]-NH2)
Assay A: percent heparin neutralization relative to protamine (100%) [1]: 30%
Assay B: percent heparin neutralization relative to protamine (100%) [1]: 9%

k-(aminoisobutyric acid)-f-r-(naph-a)-q-a-k-(naph-a) ([dK][Aib][dF][dR]A[dQ][dA][dK]A; not fully specified (residues 5, 9)) [XMP.778]
Assay A: percent heparin neutralization relative to protamine (100%) [1]: 54%
Assay B: percent heparin neutralization relative to protamine (100%) [1]: 49%
antimicrobial activity [2]: highest antimicrobial activities

k-a-f-k-(naph-a)-q-a-k-(naph-a)-k-G ([dK][dA][dF][dK][dNal][dQ][dA][dK][dNal][dK]G; not fully specified; printed as k-a-f-k-(naph-a)-q-a-k-(naph-a)-k-G) [XMP.764]
Assay A: percent heparin neutralization relative to protamine (100%) [1]: 75%
Assay B: percent heparin neutralization relative to protamine (100%) [1]: 60%
antimicrobial activity [2]: highest antimicrobial activities

k-a-f-r-(naph-a)-q-a-k-(naph-a) ([dK][dA][dF][dR][dNal][dQ][dA][dK][dNal]; not fully specified; printed as k-a-f-r-(naph-a)-q-a-k-(naph-a)) [XMP.760]
Assay A: percent heparin neutralization relative to protamine (100%) [1]: 53%
Assay B: percent heparin neutralization relative to protamine (100%) [1]: 44%
antimicrobial activity [2]: highest antimicrobial activities

k-l-f-k-(biphenyl-a)-q-a-k-(biphenyl-a)-k-G [XMP.728]
Assay A: percent heparin neutralization relative to protamine (100%) [1]: 106%
Assay B: percent heparin neutralization relative to protamine (100%) [1]: 87%

k-l-f-k-(naph-a)-q-a-k-(naph-a) ([dK][dL][dF][dK][dNal][dQ][dA][dK][dNal]; not fully specified; printed as k-l-f-k-(naph-a)-q-a-k-(naph-a)) [XMP.776]
Assay A: percent heparin neutralization relative to protamine (100%) [1]: 74%
Assay B: percent heparin neutralization relative to protamine (100%) [1]: 75%
antimicrobial activity [2]: highest antimicrobial activities

k-l-f-r-(biphenyl-A)-q-a-k [XMP.685]
Assay A: percent heparin neutralization relative to protamine (100%) [1]: 3.4%
Assay B: percent heparin neutralization relative to protamine (100%) [1]: 0.2%

k-l-f-r-(biphenyl-a)-q-a-k [XMP.725]
Assay A: percent heparin neutralization relative to protamine (100%) [1]: 3.8%
Assay B: percent heparin neutralization relative to protamine (100%) [1]: 1.0%
